What was measured:
IGF-IR = IGF-IR (Homo sapiens, UniProt P08069); assay: IGF-I mediated IGF-IR auto-phosphorylation, western blot; format: cell-based; parameters: endogenous in cells; HT-29; BxPC-3; HEL
[1] = system: HT-29 human colon carcinoma; assay: HT-29 xenograft, A12 with CPT-11 or paclitaxel; format: in vivo, nu/nu mice
Experimental: […] nu/nu mice were injected subcutaneously with HT-29 human colon carcinoma cell suspension, at 5×10^6 cells in 0.4 ml mixed 1:1 with Matrigel. […] All treatments were administered by intraperitoneal injection.
Treatment continued for six weeks and tumor measurements were recorded twice weekly using the formula Volume=(π/6)l×w^2. At day 21 four animals per group were sacrificed and the tumors resected for histological evaluation. Treatment and tumor measurements continued on the remaining animals until day 40. At that time final tumor measurements were recorded, animals sacrificed, and four per group had tumor resected for endpoint histological evaluation.

[2] = system: human colorectal cancer line HT-29; assay: HT-29 xenograft, A12 monotherapy; format: in vivo, mouse
Experimental: We were interested to determine if the anti-IGF-IR antibodies were capable of inhibiting human tumor growth in vivo in a nude mouse xenograft model. Tumors were induced in 3-4 week old athymic nude (nu/nu) mice by subcutaneous injection of 2-3 million viable HT-29 human colorectal cancer cells in cell culture medium. The tumors were allowed to establish and antibody treatment started when the tumor volume reached 200 mm^3. Ten animals were injected with tumor cells per treatment group. Antibody was injected intraperitoneally (IP) every three days at 1 mg or 0.5 mg in 0.5 ml TBS. The drug irenotecan (CPT-11) (LKT Laboratories) was injected IP (100 mg/kg) once a week for four weeks from the initiation of antibody treatment. Control animals received a class matched irrelevant human IgG antibody. Tumor measurements were performed at regular intervals using Vernier calipers, measuring height, width, and length and calculated to determine the total tumor volume. The study was terminated when control tumors reached 3000 mm^3.
Tumors were induced as previously described, and antibody treatment initiated once tumors were established (200 mm^3 size). Antibody treatment was then given at a concentration of 1 mg, 100 μg, or 10 μg every three days throughout the duration of the experiment. Ten animals were used per treatment group and control animals received a class match IgG control antibody.

**Q.** With “A12: fully human IgG1 anti-IGF-IR antibody, lambda light chain; VH SEQ ID NO:2, VL SEQ ID NO:10; affinity matured from 2F8” as the substance, how does the “inhibition of IGF-IR auto-phosphorylation” value (IGF-IR; BxPC-3 pancreatic cancer cells) read?
**A.** Its value is “inhibited auto-phosphorylation of IGF-IR”.

**Q.** What about the “inhibition of IGF-IR auto-phosphorylation” value (IGF-IR; HT-29 colorectal cancer cells) of the same substance?
**A.** The value was “inhibited auto-phosphorylation of IGF-IR”.

**Q.** What about the “agonist activity: receptor phosphorylation by antibody alone” value (IGF-IR; MCF7 cells, serum deprived, no ligand) of the same substance?
**A.** The value was “did not induce receptor phosphorylation”.

**Q.** And the “block of IGF-IR phosphorylation” value (IGF-IR; MCF7 cells, 10 nM IGF-I)?
**A.** Its value is “nearly completely blocked phosphorylation”.

**Q.** And the T/C % ([1]; day 12, ip, A12 1 mg 3 times per week, irinotecan 2 mg or paclitaxel 121 μg every 7 days)?
**A.** The T/C % was 69%.

**Q.** What about the T/C % ([1]; day 15, same regimens) of the same substance?
**A.** Its T/C % is 62%.

**Q.** What about the T/C % ([1]; day 19, same regimens) of the same substance?
**A.** The T/C % was 64%.

**Q.** What about the T/C % ([1]; day 22, same regimens) of the same substance?
**A.** The T/C % was 58%.

**Q.** And the T/C % ([1]; day 26, same regimens)?
**A.** Its T/C % is 62%.

**Q.** What about the T/C % ([1]; day 29, same regimens) of the same substance?
**A.** The T/C % was 61%.

**Q.** What about the T/C % ([1]; day 33, same regimens) of the same substance?
**A.** Its T/C % is 58%.

**Q.** What about the T/C % ([1]; day 36, same regimens) of the same substance?
**A.** Its T/C % is 53%.

**Q.** And the T/C % ([1]; day 40, same regimens)?
**A.** Its T/C % is 54%.

**Q.** What about the “inhibition of growth of HT-29 xenografts compared to TBS control” value ([1]; single agent) of the same substance?
**A.** Its value is “significantly (P<0.02) inhibited”.

**Q.** And the anti-tumor activity ([2]; 100 μg every three days)?
**A.** Its anti-tumor activity is “Anti-tumor activity was also observed”.

**Q.** What about the “reduction in tumor growth compared to control” value ([2]; every three days, P<0.05, dose of this value not stated (1 mg, 100 μg, 10 μg tested)) of the same substance?
**A.** The value was 74%.

Reference: patent US7968093B2, “Fully human antibodies directed against the human insulin-like growth factor-1 receptor” (ImClone LLC, priority 2003, dated 2011)
